From ChEMBL document CHEMBL3885881, “DrugMatrix”

Species on record: Rattus norvegicus
Experiment: DrugMatrix - Regimen: Daily Repeat
Format: toxicity, organism-based, Sprague-Dawley
Parameters: regimen Daily Repeat, gender Male, age 6-8 weeks
Conditions: in vivo, po, route oral GAVAGE, vehicle .5 % CMC; for ABSOLUTE BASOPHIL / ABSOLUTE EOSINOPHIL / ABSOLUTE LYMPHOCYTE / ABSOLUTE MONOCYTE / ABSOLUTE SEGMENTED NEUTROPHIL / BASOPHIL / EOSINOPHIL / ERYTHROCYTE COUNT / HEMATOCRIT / HEMOGLOBIN / LEUKOCYTE COUNT / LYMPHOCYTE / MEAN CORPUSCULAR HEMOGLOBIN / MEAN CORPUSCULAR HEMOGLOBIN CONCENTRATION / MEAN CORPUSCULAR VOLUME / MONOCYTE / NEUTROPHIL / NUCLEATED RED BLOOD CELLS / PLATELET COUNT: tissue Blood; for ALANINE AMINOTRANSFERASE / ALBUMIN / ALKALINE PHOSPHATASE / ASPARTATE AMINOTRANSFERASE / BLOOD UREA NITROGEN / CARBON DIOXIDE / CHLORIDE / CHOLESTEROL / CREATINE PHOSPHOKINASE / CREATININE / GLUCOSE / LACTATE DEHYDROGENASE / LIPASE / PHOSPHORUS / POTASSIUM / SODIUM / TOTAL BILIRUBIN / TOTAL PROTEIN / URIC ACID: tissue Plasma
[1] = 100 mg/kg, 72 h, dose level Low, time 3 day
[2] = 100 mg/kg, 120 h, dose level Low, time 5 day
[3] = 1500 mg/kg, 72 h, dose level High, time 3 day
[4] = 1500 mg/kg, 120 h, dose level High, time 5 day

## CC(C)Oc1ccc2c(=O)c(-c3ccccc3)coc2c1 [IPRIFLAVONE]
[1]
  ABSOLUTE BASOPHIL: 0 CELLS/uL
  ABSOLUTE EOSINOPHIL: 99.33 CELLS/uL
  ABSOLUTE LYMPHOCYTE: 13635.33 CELLS/uL
  ABSOLUTE MONOCYTE: 415.67 CELLS/uL
  ABSOLUTE SEGMENTED NEUTROPHIL: 2916.33 CELLS/uL
  BASOPHIL: 0%
  EOSINOPHIL: 0.67%
  ERYTHROCYTE COUNT: 5.96 x10E6/uL
  HEMATOCRIT: 37.1%
  HEMOGLOBIN: 14.43 G/DL
  LEUKOCYTE COUNT: 17.07 x10E3/uL
  LYMPHOCYTE: 80.33%
  MEAN CORPUSCULAR HEMOGLOBIN: 24.23 pg
  MEAN CORPUSCULAR HEMOGLOBIN CONCENTRATION: 38.93 G/DL
  MEAN CORPUSCULAR VOLUME: 62.3 fL
  MONOCYTE: 2.33%
  NEUTROPHIL: 16.67%
  NUCLEATED RED BLOOD CELLS: 0 /100WBC
  PLATELET COUNT: 1359 x10E3/uL
  ALANINE AMINOTRANSFERASE: 44 u/L
  ALBUMIN: 4.53 G/DL
  ALKALINE PHOSPHATASE: 342.67 u/L
  ASPARTATE AMINOTRANSFERASE: 79.33 u/L
  BLOOD UREA NITROGEN: 19.67 mg/dL
  CARBON DIOXIDE: 24.33 mmol/L
  CHLORIDE: 97.67 MEQ/L
  CHOLESTEROL: 61.67 mg/dL
  CREATINE PHOSPHOKINASE: 241.33 u/L
  CREATININE: 0.23 mg/dL
  GLUCOSE: 153.33 mg/dL
  LACTATE DEHYDROGENASE: 129.33 u/L
  LIPASE: 9.67 u/L
  PHOSPHORUS: 11.17 mg/dL
  POTASSIUM: 7.3 MEQ/L
  SODIUM: 139.57 MEQ/L
  TOTAL BILIRUBIN: 0.23 mg/dL
  TOTAL PROTEIN: 6.17 G/DL
  URIC ACID: 2.23 mg/dL
[2]
  ABSOLUTE BASOPHIL: 0 CELLS/uL
  ABSOLUTE EOSINOPHIL: 57.67 CELLS/uL
  ABSOLUTE LYMPHOCYTE: 12897.67 CELLS/uL
  ABSOLUTE MONOCYTE: 315.33 CELLS/uL
  ABSOLUTE SEGMENTED NEUTROPHIL: 1196 CELLS/uL
  BASOPHIL: 0%
  EOSINOPHIL: 0.33%
  ERYTHROCYTE COUNT: 6.06 x10E6/uL
  HEMATOCRIT: 36.3%
  HEMOGLOBIN: 14.4 G/DL
  LEUKOCYTE COUNT: 14.47 x10E3/uL
  LYMPHOCYTE: 89%
  MEAN CORPUSCULAR HEMOGLOBIN: 23.8 pg
  MEAN CORPUSCULAR HEMOGLOBIN CONCENTRATION: 39.67 G/DL
  MEAN CORPUSCULAR VOLUME: 59.93 fL
  MONOCYTE: 2%
  NEUTROPHIL: 8.67%
  NUCLEATED RED BLOOD CELLS: 0.33 /100WBC
  PLATELET COUNT: 1112 x10E3/uL
  ALANINE AMINOTRANSFERASE: 47 u/L
  ALBUMIN: 4.3 G/DL
  ALKALINE PHOSPHATASE: 297.33 u/L
  ASPARTATE AMINOTRANSFERASE: 91.33 u/L
  BLOOD UREA NITROGEN: 15 mg/dL
  CARBON DIOXIDE: 25.33 mmol/L
  CHLORIDE: 100.67 MEQ/L
  CHOLESTEROL: 64 mg/dL
  CREATINE PHOSPHOKINASE: 318.67 u/L
  CREATININE: 0.19 mg/dL
  GLUCOSE: 158.67 mg/dL
  LACTATE DEHYDROGENASE: 474.67 u/L
  LIPASE: 9 u/L
  PHOSPHORUS: 11.83 mg/dL
  POTASSIUM: 6.46 MEQ/L
  SODIUM: 142.8 MEQ/L
  TOTAL BILIRUBIN: 0.13 mg/dL
  TOTAL PROTEIN: 5.93 G/DL
  URIC ACID: 1.7 mg/dL
[3]
  ABSOLUTE BASOPHIL: 0 CELLS/uL
  ABSOLUTE EOSINOPHIL: 0 CELLS/uL
  ABSOLUTE LYMPHOCYTE: 12351.67 CELLS/uL
  ABSOLUTE MONOCYTE: 95 CELLS/uL
  ABSOLUTE SEGMENTED NEUTROPHIL: 2086.67 CELLS/uL
  BASOPHIL: 0%
  EOSINOPHIL: 0%
  ERYTHROCYTE COUNT: 5.63 x10E6/uL
  HEMATOCRIT: 34.7%
  HEMOGLOBIN: 13.77 G/DL
  LEUKOCYTE COUNT: 14.53 x10E3/uL
  LYMPHOCYTE: 85%
  MEAN CORPUSCULAR HEMOGLOBIN: 24.47 pg
  MEAN CORPUSCULAR HEMOGLOBIN CONCENTRATION: 39.67 G/DL
  MEAN CORPUSCULAR VOLUME: 61.63 fL
  MONOCYTE: 0.67%
  NEUTROPHIL: 14.33%
  NUCLEATED RED BLOOD CELLS: 0.33 /100WBC
  PLATELET COUNT: 1247.33 x10E3/uL
  ALANINE AMINOTRANSFERASE: 44.33 u/L
  ALBUMIN: 4.3 G/DL
  ALKALINE PHOSPHATASE: 325 u/L
  ASPARTATE AMINOTRANSFERASE: 80.33 u/L
  BLOOD UREA NITROGEN: 15.33 mg/dL
  CARBON DIOXIDE: 27 mmol/L
  CHLORIDE: 101 MEQ/L
  CHOLESTEROL: 68.67 mg/dL
  CREATINE PHOSPHOKINASE: 256.33 u/L
  CREATININE: 0.15 mg/dL
  GLUCOSE: 149.33 mg/dL
  LACTATE DEHYDROGENASE: 181 u/L
  LIPASE: 9.33 u/L
  PHOSPHORUS: 12.3 mg/dL
  POTASSIUM: 6.1 MEQ/L
  SODIUM: 143.17 MEQ/L
  TOTAL BILIRUBIN: 0.1 mg/dL
  TOTAL PROTEIN: 5.67 G/DL
  URIC ACID: 1.53 mg/dL
[4]
  ABSOLUTE BASOPHIL: 0 CELLS/uL
  ABSOLUTE EOSINOPHIL: 0 CELLS/uL
  ABSOLUTE LYMPHOCYTE: 12219.33 CELLS/uL
  ABSOLUTE MONOCYTE: 47.33 CELLS/uL
  ABSOLUTE SEGMENTED NEUTROPHIL: 1100 CELLS/uL
  BASOPHIL: 0%
  EOSINOPHIL: 0%
  ERYTHROCYTE COUNT: 5.81 x10E6/uL
  HEMATOCRIT: 35.17%
  HEMOGLOBIN: 14.03 G/DL
  LEUKOCYTE COUNT: 13.37 x10E3/uL
  LYMPHOCYTE: 91.33%
  MEAN CORPUSCULAR HEMOGLOBIN: 24.23 pg
  MEAN CORPUSCULAR HEMOGLOBIN CONCENTRATION: 39.9 G/DL
  MEAN CORPUSCULAR VOLUME: 60.63 fL
  MONOCYTE: 0.33%
  NEUTROPHIL: 8.33%
  NUCLEATED RED BLOOD CELLS: 0 /100WBC
  PLATELET COUNT: 1215 x10E3/uL
  ALANINE AMINOTRANSFERASE: 48 u/L
  ALBUMIN: 4.47 G/DL
  ALKALINE PHOSPHATASE: 278.33 u/L
  ASPARTATE AMINOTRANSFERASE: 72.33 u/L
  BLOOD UREA NITROGEN: 14.67 mg/dL
  CARBON DIOXIDE: 25.67 mmol/L
  CHLORIDE: 102.33 MEQ/L
  CHOLESTEROL: 53 mg/dL
  CREATINE PHOSPHOKINASE: 231 u/L
  CREATININE: 0.16 mg/dL
  GLUCOSE: 153 mg/dL
  LACTATE DEHYDROGENASE: 157.33 u/L
  LIPASE: 9.67 u/L
  PHOSPHORUS: 11.6 mg/dL
  POTASSIUM: 6.76 MEQ/L
  SODIUM: 145.4 MEQ/L
  TOTAL BILIRUBIN: 0.2 mg/dL
  TOTAL PROTEIN: 6.17 G/DL
  URIC ACID: 1.9 mg/dL
